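Exposure lasted 48 hours, with cells grown in 96-well plates and compounds tested at five concentrations. TGI: total growth inhibition.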
Experiments:
Assay in all cases: NCI anticancer screen, dose series, 48 h
SF-539 CNS = tested on: SF-539 CNS
DLD-1 colon = tested on: DLD-1 colon
KM12 colon = tested on: KM12 colon
RXF 393 renal = tested on: RXF 393 renal
SK-MEL-28 melanoma = tested on: SK-MEL-28 melanoma
TK-10 renal = tested on: TK-10 renal
MALME-3M melanoma = tested on: MALME-3M melanoma
NCI-H460 lung = tested on: NCI-H460 lung
CCRF-CEM leukemia = tested on: CCRF-CEM leukemia
SW-620 colon = tested on: SW-620 colon
LOX IMVI melanoma = tested on: LOX IMVI melanoma
786-0 renal = tested on: 786-0 renal
COLO 205 colon = tested on: COLO 205 colon
OVCAR-3 ovarian = tested on: OVCAR-3 ovarian
KM20L2 colon = tested on: KM20L2 colon
RPMI-8226 leukemia = tested on: RPMI-8226 leukemia
HCT-15 colon = tested on: HCT-15 colon
EKVX NSCLC = tested on: EKVX NSCLC
HT29 colon = tested on: HT29 colon
OVCAR-8 ovarian = tested on: OVCAR-8 ovarian
SNB-75 CNS = tested on: SNB-75 CNS
DMS 273 small cell lung = tested on: DMS 273 small cell lung
IGROV1 ovarian = tested on: IGROV1 ovarian
M19-MEL melanoma = tested on: M19-MEL melanoma
A549 NSCLC = tested on: A549 NSCLC
HL-60(TB) leukemia = tested on: HL-60(TB) leukemia
DMS 114 small cell lung = tested on: DMS 114 small cell lung
NCI-H23 lung = tested on: NCI-H23 lung
U251 CNS = tested on: U251 CNS
UO-31 renal = tested on: UO-31 renal
NCI-H226 lung = tested on: NCI-H226 lung
HOP-92 NSCLC = tested on: HOP-92 NSCLC
SF-295 CNS = tested on: SF-295 CNS
SNB-19 CNS = tested on: SNB-19 CNS
SK-OV-3 ovarian = tested on: SK-OV-3 ovarian
K-562 leukemia = tested on: K-562 leukemia
HCT-116 colon = tested on: HCT-116 colon
SK-MEL-2 melanoma = tested on: SK-MEL-2 melanoma
A498 renal = tested on: A498 renal
SR leukemia = tested on: SR leukemia
SN12C renal = tested on: SN12C renal
M14 melanoma = tested on: M14 melanoma
XF 498 CNS = tested on: XF 498 CNS
SK-MEL-5 melanoma = tested on: SK-MEL-5 melanoma
SNB-78 CNS = tested on: SNB-78 CNS
HCC-2998 colon = tested on: HCC-2998 colon
ACHN renal = tested on: ACHN renal
SF-268 CNS = tested on: SF-268 CNS
UACC-257 melanoma = tested on: UACC-257 melanoma
MOLT-4 leukemia = tested on: MOLT-4 leukemia
HOP-62 NSCLC = tested on: HOP-62 NSCLC
HOP-18 NSCLC = tested on: HOP-18 NSCLC
OVCAR-5 ovarian = tested on: OVCAR-5 ovarian
OVCAR-4 ovarian = tested on: OVCAR-4 ovarian
UACC-62 melanoma = tested on: UACC-62 melanoma
LXFL 529 NSCLC = tested on: LXFL 529 NSCLC
NCI-H522 lung = tested on: NCI-H522 lung
CAKI-1 renal = tested on: CAKI-1 renal

Measured: TGI

O=C(CNC(=O)OCc1ccccc1)Oc1ccccc1
> 42.7 µM: SNB-19 CNS
> 100 µM: SF-539 CNS | DLD-1 colon | KM12 colon | RXF 393 renal | SK-MEL-28 melanoma | TK-10 renal | MALME-3M melanoma | NCI-H460 lung | CCRF-CEM leukemia | SW-620 colon | LOX IMVI melanoma | 786-0 renal | COLO 205 colon | OVCAR-3 ovarian | KM20L2 colon | RPMI-8226 leukemia | HCT-15 colon | EKVX NSCLC | HT29 colon | OVCAR-8 ovarian | SNB-75 CNS | DMS 273 small cell lung | IGROV1 ovarian | M19-MEL melanoma | A549 NSCLC | HL-60(TB) leukemia | DMS 114 small cell lung | NCI-H23 lung | U251 CNS | UO-31 renal | NCI-H226 lung | HOP-92 NSCLC | SF-295 CNS | SK-OV-3 ovarian | K-562 leukemia | HCT-116 colon | SK-MEL-2 melanoma | A498 renal | SR leukemia | SN12C renal | M14 melanoma | XF 498 CNS | SK-MEL-5 melanoma | SNB-78 CNS | HCC-2998 colon | ACHN renal | SF-268 CNS | UACC-257 melanoma | MOLT-4 leukemia | HOP-62 NSCLC | HOP-18 NSCLC | OVCAR-5 ovarian | OVCAR-4 ovarian | UACC-62 melanoma | LXFL 529 NSCLC | NCI-H522 lung

O=C(O)c1c2c(c(C(=O)O)c3ccccc13)-c1ccccc1-2
85.5 µM: SF-539 CNS
84 µM: OVCAR-3 ovarian
83.9 µM: HOP-18 NSCLC
> 100 µM: DLD-1 colon | KM12 colon | SK-MEL-28 melanoma | TK-10 renal | MALME-3M melanoma | CCRF-CEM leukemia | SW-620 colon | LOX IMVI melanoma | 786-0 renal | COLO 205 colon | KM20L2 colon | RPMI-8226 leukemia | EKVX NSCLC | HT29 colon | OVCAR-8 ovarian | SNB-75 CNS | DMS 273 small cell lung | M19-MEL melanoma | A549 NSCLC | HL-60(TB) leukemia | DMS 114 small cell lung | NCI-H23 lung | U251 CNS | UO-31 renal | NCI-H226 lung | SF-295 CNS | SNB-19 CNS | K-562 leukemia | HCT-116 colon | A498 renal | SR leukemia | SN12C renal | M14 melanoma | XF 498 CNS | SNB-78 CNS | HCC-2998 colon | ACHN renal | SF-268 CNS | UACC-257 melanoma | MOLT-4 leukemia | HOP-62 NSCLC | OVCAR-5 ovarian | LXFL 529 NSCLC | NCI-H522 lung
66.9 µM: RXF 393 renal
65.9 µM: UACC-62 melanoma
71.9 µM: HOP-92 NSCLC
94.8 µM: SK-OV-3 ovarian
97.1 µM: SK-MEL-2 melanoma

Cn1nc(-c2ccccc2)c(N=[N+]=[N-])cc1=O
> 100 µM: SF-539 CNS | KM12 colon | RXF 393 renal | SK-MEL-28 melanoma | TK-10 renal | MALME-3M melanoma | NCI-H460 lung | CCRF-CEM leukemia | SW-620 colon | LOX IMVI melanoma | 786-0 renal | COLO 205 colon | OVCAR-3 ovarian | KM20L2 colon | RPMI-8226 leukemia | HCT-15 colon | EKVX NSCLC | HT29 colon | OVCAR-8 ovarian | CAKI-1 renal | DMS 273 small cell lung | IGROV1 ovarian | M19-MEL melanoma | A549 NSCLC | HL-60(TB) leukemia | DMS 114 small cell lung | NCI-H23 lung | U251 CNS | UO-31 renal | NCI-H226 lung | SF-295 CNS | SNB-19 CNS | SK-OV-3 ovarian | K-562 leukemia | HCT-116 colon | A498 renal | SR leukemia | SN12C renal | M14 melanoma | XF 498 CNS | SK-MEL-5 melanoma | HCC-2998 colon | ACHN renal | SF-268 CNS | UACC-257 melanoma | MOLT-4 leukemia | HOP-62 NSCLC | OVCAR-5 ovarian | OVCAR-4 ovarian | UACC-62 melanoma | LXFL 529 NSCLC | NCI-H522 lung

C\C=C/C=C/C=C/C(=O)O
> 100 µM: SF-539 CNS | DLD-1 colon | KM12 colon | RXF 393 renal | SK-MEL-28 melanoma | MALME-3M melanoma | NCI-H460 lung | CCRF-CEM leukemia | SW-620 colon | LOX IMVI melanoma | 786-0 renal | COLO 205 colon | OVCAR-3 ovarian | KM20L2 colon | RPMI-8226 leukemia | HCT-15 colon | EKVX NSCLC | HT29 colon | OVCAR-8 ovarian | CAKI-1 renal | SNB-75 CNS | DMS 273 small cell lung | IGROV1 ovarian | A549 NSCLC | HL-60(TB) leukemia | DMS 114 small cell lung | NCI-H23 lung | U251 CNS | UO-31 renal | NCI-H226 lung | SF-295 CNS | SNB-19 CNS | SK-OV-3 ovarian | K-562 leukemia | HCT-116 colon | SK-MEL-2 melanoma | A498 renal | SN12C renal | M14 melanoma | SK-MEL-5 melanoma | SNB-78 CNS | HCC-2998 colon | ACHN renal | SF-268 CNS | UACC-257 melanoma | MOLT-4 leukemia | HOP-62 NSCLC | HOP-18 NSCLC | OVCAR-5 ovarian | OVCAR-4 ovarian | UACC-62 melanoma | LXFL 529 NSCLC | NCI-H522 lung
